From PubChem BioAssay AID2060620 (Molecular Pharmacology Branch, DTP, NCI, 2025)
Blank lines part the entries; values can stand above or below the compound they belong to.

Tested on: 328373-195-R-J1-PDC complex spheroids, viability % test/control
Experiment: Anticancer human tumor 328373-195-R-J1-PDC patient-derived head and neck squamous carcinoma cell line growth inhibition [CLK]
Settings: for IC50: curve of first compound; for viability, T/C: stronger effect = lower value
Outline: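 Patient-derived tumor cells grown as complex spheroids with HUVEC endothelial cells and mesenchymal stem cells, treated with drug combinations. Concentrations descend in half-log steps from near clinical Cmax, or from 10 microM if Cmax unknown.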

[1] = second compound 0.0316 µM, first compound 0.0316 µM
[2] = second compound 0.0316 µM, first compound 0.1 µM
[3] = second compound 0.0316 µM, first compound 0.316 µM
[4] = second compound 0.0316 µM, first compound 1 µM
[5] = second compound 0.0316 µM, first compound 3.16 µM
[6] = second compound 0.0316 µM, first compound 10 µM
[7] = second compound 0.1 µM, first compound 0.0316 µM
[8] = second compound 0.1 µM, first compound 0.1 µM
[9] = second compound 0.1 µM, first compound 0.316 µM
[10] = second compound 0.1 µM, first compound 1 µM
[11] = second compound 0.1 µM, first compound 3.16 µM
[12] = second compound 0.1 µM, first compound 10 µM
[13] = second compound 0.316 µM, first compound 0.0316 µM
[14] = second compound 0.316 µM, first compound 0.1 µM
[15] = second compound 0.316 µM, first compound 0.316 µM
[16] = second compound 0.316 µM, first compound 1 µM
[17] = second compound 0.316 µM, first compound 3.16 µM
[18] = second compound 0.316 µM, first compound 10 µM
[19] = second compound 1 µM, first compound 0.0316 µM
[20] = second compound 1 µM, first compound 0.1 µM
[21] = second compound 1 µM, first compound 0.316 µM
[22] = second compound 1 µM, first compound 1 µM
[23] = second compound 1 µM, first compound 3.16 µM
[24] = second compound 1 µM, first compound 10 µM
[25] = second compound 3.16 µM, first compound 0.0316 µM
[26] = second compound 3.16 µM, first compound 0.1 µM
[27] = second compound 3.16 µM, first compound 0.316 µM
[28] = second compound 3.16 µM, first compound 1 µM
[29] = second compound 3.16 µM, first compound 3.16 µM
[30] = second compound 3.16 µM, first compound 10 µM
[31] = second compound 10 µM, first compound 0.0316 µM
[32] = second compound 10 µM, first compound 0.1 µM
[33] = second compound 10 µM, first compound 0.316 µM
[34] = second compound 10 µM, first compound 1 µM
[35] = second compound 10 µM, first compound 3.16 µM
[36] = second compound 10 µM, first compound 10 µM
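Also: spheroids exposed to the agents for 7 days.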

IC50 (second compound 0.0316 µM): 3760 nM | IC50 (second compound 0.1 µM): < 31.6 nM | IC50 (second compound 0.316 µM): < 31.6 nM | IC50 (second compound 1 µM): < 31.6 nM | IC50 (second compound 3.16 µM): < 31.6 nM | IC50 (second compound 10 µM): < 31.6 nM
Compound: COc1ccc([C@@H](O)c2cc(-c3ncnc4cc(N5CCOCC5)ccc34)c(F)cc2Cl)nn1 + CNC(=O)c1ccc(Nc2nc(OC3CCCC3)c3c(-c4ccc5nc(C)oc5c4)c[nH]c3n2)c(OC)c1
viability, T/C [1]: 51.2% | viability, T/C [2]: 56.5% | viability, T/C [3]: 43.4% | viability, T/C [4]: 58.7% | viability, T/C [5]: 55.4% | viability, T/C [6]: 33.3% | viability, T/C [7]: 10.5% | viability, T/C [8]: 8.48% | viability, T/C [9]: 12.4% | viability, T/C [10]: 10% | viability, T/C [11]: 9.78% | viability, T/C [12]: 12.6% | viability, T/C [13]: 8.21% | viability, T/C [14]: 8.88% | viability, T/C [15]: 8.95% | viability, T/C [16]: 7.72% | viability, T/C [17]: 10.2% | viability, T/C [18]: 12.2% | viability, T/C [19]: 10.3% | viability, T/C [20]: 8.67% | viability, T/C [21]: 10.8% | viability, T/C [22]: 9.89% | viability, T/C [23]: 9.31% | viability, T/C [24]: 12.8% | viability, T/C [25]: 9.71% | viability, T/C [26]: 9.31% | viability, T/C [27]: 9.23% | viability, T/C [28]: 9.82% | viability, T/C [29]: 10.5% | viability, T/C [30]: 13.2% | viability, T/C [31]: 10.6% | viability, T/C [32]: 10.8% | viability, T/C [33]: 8.9% | viability, T/C [34]: 13.1% | viability, T/C [35]: 12.2% | viability, T/C [36]: 12.5%

IC50 (second compound 0.0316 µM): < 31.6 nM | IC50 (second compound 0.1 µM): < 31.6 nM | IC50 (second compound 0.316 µM): < 31.6 nM | IC50 (second compound 1 µM): < 31.6 nM | IC50 (second compound 3.16 µM): < 31.6 nM | IC50 (second compound 10 µM): < 31.6 nM
Compound: COc1cccc2c1C(=O)c1c(O)c3c(c(O)c1C2=O)CC(O)(C(=O)CO)CC3OC1CC(N)C(O)C(C)O1 (centres undefined) + CNC(=O)c1ccc(Nc2nc(OC3CCCC3)c3c(-c4ccc5nc(C)oc5c4)c[nH]c3n2)c(OC)c1
viability, T/C [1]: 12.6% | viability, T/C [2]: 4.2% | viability, T/C [3]: 0.6% | viability, T/C [4]: 0.17% | viability, T/C [5]: 0.12% | viability, T/C [6]: 3.04% | viability, T/C [7]: 8.2% | viability, T/C [8]: 3.67% | viability, T/C [9]: 0.55% | viability, T/C [10]: 0.13% | viability, T/C [11]: 0.09% | viability, T/C [12]: 4.34% | viability, T/C [13]: 8.9% | viability, T/C [14]: 3.98% | viability, T/C [15]: 0.5% | viability, T/C [16]: 0.07% | viability, T/C [17]: 0.07% | viability, T/C [18]: 1.96% | viability, T/C [19]: 8.51% | viability, T/C [20]: 2.74% | viability, T/C [21]: 1.07% | viability, T/C [22]: 0.06% | viability, T/C [23]: 0.07% | viability, T/C [24]: 4.59% | viability, T/C [25]: 11.5% | viability, T/C [26]: 3.82% | viability, T/C [27]: 0.22% | viability, T/C [28]: 0.06% | viability, T/C [29]: 0.93% | viability, T/C [30]: 2.69% | viability, T/C [31]: 12.1% | viability, T/C [32]: 1.9% | viability, T/C [33]: 0.16% | viability, T/C [34]: 0.1% | viability, T/C [35]: 0.6% | viability, T/C [36]: 2.6%
